Measurements reported in patent US10889611B2, “Sialyltransferase inhibitors and uses thereof” (Academia Sinica, priority 2015, dated 2021).

Assays:
[1] = target: T1, α2,6(N)-sialyltransferases ST6GALI (Homo sapiens, UniProt P15907); experiment: Sialyltransferase inhibition assay, ST6GALI (reverse-phase HPLC); format: biochemical; conditions: for IC50: IC50 (μM) ST6GALI, α2,6-N-link
T1 construct: purchased RnDSystems.com (R&D Systems)
T1 sequence (P15907 1-406): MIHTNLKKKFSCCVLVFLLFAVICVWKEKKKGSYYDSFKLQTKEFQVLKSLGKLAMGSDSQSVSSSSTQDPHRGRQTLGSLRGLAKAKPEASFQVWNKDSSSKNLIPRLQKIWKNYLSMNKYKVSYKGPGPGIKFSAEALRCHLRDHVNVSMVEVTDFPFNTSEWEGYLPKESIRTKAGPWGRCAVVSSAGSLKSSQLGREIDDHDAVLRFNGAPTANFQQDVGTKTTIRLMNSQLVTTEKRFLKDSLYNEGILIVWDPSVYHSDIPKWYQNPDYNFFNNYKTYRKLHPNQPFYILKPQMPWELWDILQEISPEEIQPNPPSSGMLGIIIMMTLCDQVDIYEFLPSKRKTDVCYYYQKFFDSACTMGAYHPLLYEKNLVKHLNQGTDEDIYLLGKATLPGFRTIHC
Method: (§1) The enzymes analyzed in the present study included rat ST3Gal(I), rat ST3Gal(III), and human ST6Gal(I). Rat ST3Gal(I) and rat ST3Gal(Ill), were purchased from Calbiochem®, while human ST6Gal(I) was purchased from RnDSystems.com.
(§2) Sialyltransferase inhibition assay (α2,6-N-ST) was performed as follows: Sialyltransferase activity was determined by measuring the level of the end product of sialylated saccharides with reverse-phase HPLC. The assay mixtures contained the following components: 200 mM MES buffer; 100 mM NaCl; 0.5 mM EDTA; 0.01% Triton X-100; 1.4 mU ST6GALI; 25 μM Galβ1-4GlcNAc; 1 mM CMP-Neu5Ac and different concentration of Sialyltransferase inhibitors to a total volume of 50 μl. The assay mixture was incubated at 37° C. for 15 mins and then quenched by heating up to 101° C. for 10 mins. The sialylated product is resolved with reversed-phase HPLC. Kinetic data were obtained by fitting the initial rate data to the nonlinear regression equation.
(§3) Effects of the present compounds on the activity of sialyltransferase, including α2,3(N)-sialyltransferase ST3GALIII, α2,6(N)-sialyltransferases ST6GALI, and α2,3(O)-sialyltransferase ST3GALI, were determined in accordance with procedures described in the “Materials and Methods” section, and results are summarized in Table 1.

[2] = target: T2, α2,3(O)-sialyltransferase ST3GALI (Rattus norvegicus, UniProt Q6H8N0); experiment: Sialyltransferase inhibition assay, ST3GALI (reverse-phase HPLC); format: biochemical; conditions: measured at 500 μM; read-out: ST3GALI inhibition percentage
T2 construct: purchased Calbiochem
T2 sequence (Q6H8N0 1-340): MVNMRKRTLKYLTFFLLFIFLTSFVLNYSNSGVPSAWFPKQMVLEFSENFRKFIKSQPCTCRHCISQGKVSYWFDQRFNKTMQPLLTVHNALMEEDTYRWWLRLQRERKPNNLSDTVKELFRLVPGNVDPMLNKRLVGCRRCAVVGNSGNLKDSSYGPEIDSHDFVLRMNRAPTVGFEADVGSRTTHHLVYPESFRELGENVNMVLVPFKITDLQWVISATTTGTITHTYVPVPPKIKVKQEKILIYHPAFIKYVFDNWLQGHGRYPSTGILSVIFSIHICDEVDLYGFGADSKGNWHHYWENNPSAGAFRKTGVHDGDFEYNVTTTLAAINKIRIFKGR
Method: as §1
as §2, with “mU ST3GALI; 2.5 mM T-antigen;” for “mU ST6GALI; 25 μM Galβ1-4GlcNAc;”, “to 101′C” for “to 101° C.”, “product was” for “product is”, “resolved by” for “resolved with”
as §3

Structure (SMILES)	melting point [°C]	other results
C[C@H](Nc1ccc([N+](=O)[O-])c2nonc12)C(=O)N[C@@H]1CC[C@]2(C)C3CC[C@@]4(C)C(CCC4[C@H](C)CCC(=O)OCCOCCOCCN=[N+]=[N-])C3CC[C@@H]2C1 (stereo partly drawn)	69 to 70	
C[C@H](CCC(=O)OCCOCCOCCN=[N+]=[N-])C1CCC2C3CC[C@@H]4C[C@H](NC(=O)[C@H](CS)Nc5ccc([N+](=O)[O-])c6nonc56)CC[C@]4(C)C3CC[C@@]21C (stereo partly drawn)	68 to 69	
C[C@H](CCC(=O)OCCOCCOCCN=[N+]=[N-])C1CCC2C3CC[C@@H]4C[C@H](NC(=O)[C@H](CSC(C)(C)C)Nc5ccc([N+](=O)[O-])c6nonc56)CC[C@]4(C)C3CC[C@@]21C (stereo partly drawn)	64 to 65	
C[C@H](CCC(=O)OCCOCCOCCN=[N+]=[N-])C1CCC2C3CC[C@@H]4C[C@H](NC(=O)[C@H](CCC(=O)O)Nc5ccc([N+](=O)[O-])c6nonc56)CC[C@]4(C)C3CC[C@@]21C (stereo partly drawn)	77 to 78	
C[C@H](CCC(=O)OCCOCCOCCN=[N+]=[N-])C1CCC2C3CC[C@@H]4C[C@H](NC(=O)[C@H](CCCCN)Nc5ccc([N+](=O)[O-])c6nonc56)CC[C@]4(C)C3CC[C@@]21C (stereo partly drawn)	84 to 85	
C[C@H](CCC(=O)OCCOCCOCCN=[N+]=[N-])C1CCC2C3CC[C@@H]4C[C@H](NC(=O)[C@H](CCCNC(=N)N)Nc5ccc([N+](=O)[O-])c6nonc56)CC[C@]4(C)C3CC[C@@]21C (stereo partly drawn)	78 to 79	
C[C@H](CCC(=O)OCCOCCOCCN=[N+]=[N-])C1CCC2C3CC[C@@H]4C[C@H](NC(=O)[C@H](Cc5ccc(O)cc5)Nc5ccc([N+](=O)[O-])c6nonc56)CC[C@]4(C)C3CC[C@@]21C (stereo partly drawn)	72 to 73	
C[C@H](CCC(=O)OCCOCCOCCN=[N+]=[N-])C1CCC2C3CC[C@@H]4C[C@H](NC(=O)[C@H](Cc5ccccc5)Nc5ccc([N+](=O)[O-])c6nonc56)CC[C@]4(C)C3CC[C@@]21C (stereo partly drawn)	65 to 66	
C[C@H](CCC(=O)OCCOCCOCCN=[N+]=[N-])C1CCC2C3CC[C@@H]4C[C@H](NC(=O)[C@H](Cc5c[nH]c6ccccc56)Nc5ccc([N+](=O)[O-])c6nonc56)CC[C@]4(C)C3CC[C@@]21C (stereo partly drawn)	86 to 87	
C[C@H](CCC(=O)OCCOCCOCCN=[N+]=[N-])C1CCC2C3CC[C@@H]4C[C@H](NC(=O)C5CCCN5c5ccc([N+](=O)[O-])c6nonc56)CC[C@]4(C)C3CC[C@@]21C (stereo partly drawn)	62 to 64	
C[C@H](CCC(=O)O)C1CCC2C3CC[C@@H]4C[C@H](Nc5ccc([N+](=O)[O-])c6nonc56)CC[C@]4(C)C3CC[C@@]21C (stereo partly drawn)	137 to 139	
C[C@H](CCC(=O)O)C1CCC2C3CC[C@@H]4C[C@H](Nc5ccc6ccccc6n5)CC[C@]4(C)C3CC[C@@]21C (stereo partly drawn)	140 to 142	
C[C@H](CCC(=O)O)C1CCC2C3CC[C@@H]4C[C@H](NC5=C(Cl)C(=O)c6ccccc6C5=O)CC[C@]4(C)C3CC[C@@]21C (stereo partly drawn)	120 to 122	
COc1cc2nc(Cl)nc(N[C@@H]3CC[C@]4(C)C5CC[C@@]6(C)C(CCC6[C@H](C)CCC(=O)O)C5CC[C@@H]4C3)c2cc1OC (stereo partly drawn)	178 to 180	
C[C@H](CCC(=O)O)C1CCC2C3CC[C@@H]4C[C@H](Nc5nc6ccccc6nc5Cl)CC[C@]4(C)C3CC[C@@]21C (stereo partly drawn)	118 to 120	
C[C@H](CCC(=O)O)C1CCC2C3CC[C@@H]4C[C@H](NS(=O)(=O)c5c(Cl)ccc6nonc56)CC[C@]4(C)C3CC[C@@]21C (stereo partly drawn)	128 to 130	
C[C@H](CCC(=O)O)C1CCC2C3CC[C@@H]4C[C@H](NS(=O)(=O)c5cccc6c(N(C)C)cccc56)CC[C@]4(C)C3CC[C@@]21C (stereo partly drawn)	136 to 138	
C[C@H](CCC(=O)O)C1CCC2C3CC[C@@H]4C[C@H](NS(=O)(=O)c5cc6ccccc6s5)CC[C@]4(C)C3CC[C@@]21C (stereo partly drawn)	132 to 134	
C[C@H](CCC(=O)O)C1CCC2C3CC[C@@H]4C[C@H](NS(=O)(=O)c5cccc6cccnc56)CC[C@]4(C)C3CC[C@@]21C (stereo partly drawn)	138 to 140	
C[C@H](CCC(=O)O)C1CCC2C3CC[C@@H]4C[C@H](NC(=O)[C@H](CC(=O)O)Nc5ccc([N+](=O)[O-])c6nonc56)CC[C@]4(C)C3CC[C@@]21C (stereo partly drawn)	134 to 136	
C[C@H](CCC(=O)O)C1CCC2C3CC[C@@H]4C[C@H](NC(=O)[C@@H](N)CC(=O)O)CC[C@]4(C)C3CC[C@@]21C (stereo partly drawn)	158 to 160	
C[C@H](CCC(=O)OCCOCCN=[N+]=[N-])C1CC[C@H]2[C@@H]3CC[C@@H]4C[C@H](OC(=O)[C@H](CC(=O)O)Nc5ccc([N+](=O)[O-])c6nonc56)CC[C@]4(C)[C@H]3CC[C@]12C (stereo partly drawn) [Compound 2, (3S)-4-(((3R,5R,8R,9S,10S,13R,14S)-17-((R)-5-(2-(2-azidoethoxy)ethoxy)-5-oxopentan-2-yl)-10,13-dimethylhexadecahydro-1H-cyclopenta[a]phenanthren-3-yl)oxy)-3-((7-nitrobenzo[c][1,2,5]oxadiazol-4-yl)amino)-4-oxobutanoic acid]	75 to 76	IC50 [1]: 3 to 7 µM
C[C@H](CCC(=O)OCCN=[N+]=[N-])C1CC[C@H]2[C@@H]3CC[C@@H]4C[C@H](OC(=O)[C@H](CC(=O)O)NC(=O)c5ccc([N+](=O)[O-])cc5)CC[C@]4(C)[C@H]3CC[C@]12C (stereo partly drawn) [Compound 6, (3S)-4-(((3R,5R,8R,9S,10S,13R,14S)-17-((R)-5-(2-azidoethoxy)-5-oxopentan-2-yl)-10,13-dimethylhexadecahydro-1H-cyclopenta[a]phenanthren-3-yl)oxy)-3-(4-nitrobenzamido)-4-oxobutanoic acid]	61 to 62	inhibition at 500 µM [2]: 0%; selectivity ratio ST3GALI/ST6GALI [1]: >70; IC50 [1]: 7.21 ± 0.1 µM
C[C@H](CCC(=O)OCCOCCOCCOCCN=[N+]=[N-])C1CC[C@H]2[C@@H]3CC[C@@H]4C[C@H](OC(=O)[C@H](CC(=O)O)NC(=O)c5ccc([N+](=O)[O-])cc5)CC[C@]4(C)[C@H]3CC[C@]12C (stereo partly drawn) [Compound 9, (3S)-4-(((3R,5R,8R,9S,10S,13R,14S)-17-((R)-1-azido-13-oxo-3,6,9,12-tetraoxaheptadecan-16-yl)-10,13-dimethylhexadecahydro-1H-cyclopenta[a]phenanthren-3-yl)oxy)-3-(4-nitrobenzamido)-4-oxobutanoic acid]		inhibition at 500 µM [2]: 0%; selectivity ratio ST3GALI/ST6GALI [1]: >88; IC50 [1]: 5.7 ± 0.36 µM
C[C@H](CCC(=O)OCCOCCOCCOCCOCCN=[N+]=[N-])C1CC[C@H]2[C@@H]3CC[C@@H]4C[C@H](OC(=O)[C@H](CC(=O)O)NC(=O)c5ccc([N+](=O)[O-])cc5)CC[C@]4(C)[C@H]3CC[C@]12C (stereo partly drawn) [Compound 10, (3S)-4-(((3R,5R,8R,9S,10S,13R,14S)-17-((R)-1-azido-16-oxo-3,6,9,12,15-pentaoxaicosan-19-yl)-10,13-dimethylhexadecahydro-1H-cyclopenta[a]phenanthren-3-yl)oxy)-3-(4-nitrobenzamido)-4-oxobutanoic acid]		inhibition at 500 µM [2]: 0%; selectivity ratio ST3GALI/ST6GALI [1]: >67; IC50 [1]: 7.45 ± 0.36 µM
